The values that follow come from publication PMC4899901, “Sorokiniol: a new enzymes inhibitory metabolite from fungal endophyte Bipolaris sorokiniana LK12” (BMC Microbiology, 2016).

Structures are written as SMILES.

The target of test [1] is Acetyl Cholinestrase (AChE) (Electrophorus electricus, UniProt O42275). Kind of test: Ellman assay (acetylthiocholine/DTNB, […] nm) with electric eel AChE. In kind it is biochemical. Conditions: read-out: EC50 (the source's name) (converted). (In general: Ellman's reagent forms a yellow product with free thiols.)
Chain of Acetyl Cholinestrase (AChE) (O42275 24-633): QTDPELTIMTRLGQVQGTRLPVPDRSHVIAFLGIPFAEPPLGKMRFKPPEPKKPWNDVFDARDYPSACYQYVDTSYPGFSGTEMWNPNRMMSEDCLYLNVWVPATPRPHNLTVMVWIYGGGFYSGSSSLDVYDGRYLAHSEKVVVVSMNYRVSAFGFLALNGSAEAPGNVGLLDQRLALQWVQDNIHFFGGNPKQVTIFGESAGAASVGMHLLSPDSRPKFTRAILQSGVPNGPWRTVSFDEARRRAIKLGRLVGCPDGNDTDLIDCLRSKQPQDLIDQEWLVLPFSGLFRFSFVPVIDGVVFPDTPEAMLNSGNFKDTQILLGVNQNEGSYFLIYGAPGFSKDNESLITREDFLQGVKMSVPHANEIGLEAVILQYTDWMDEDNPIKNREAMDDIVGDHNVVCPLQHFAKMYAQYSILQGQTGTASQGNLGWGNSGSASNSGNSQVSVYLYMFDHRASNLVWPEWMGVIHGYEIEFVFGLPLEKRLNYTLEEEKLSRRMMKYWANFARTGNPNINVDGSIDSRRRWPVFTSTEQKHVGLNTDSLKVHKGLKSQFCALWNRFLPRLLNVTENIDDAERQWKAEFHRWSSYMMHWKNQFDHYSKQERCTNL
For a further test, the target named is Jack bean Urease (Canavalia ensiformis, UniProt P07374). Nature of the test: indophenol urease assay (ammonia production, […] nm). In kind it is biochemical.
Chain of Jack bean Urease (P07374 whole entry, looked up): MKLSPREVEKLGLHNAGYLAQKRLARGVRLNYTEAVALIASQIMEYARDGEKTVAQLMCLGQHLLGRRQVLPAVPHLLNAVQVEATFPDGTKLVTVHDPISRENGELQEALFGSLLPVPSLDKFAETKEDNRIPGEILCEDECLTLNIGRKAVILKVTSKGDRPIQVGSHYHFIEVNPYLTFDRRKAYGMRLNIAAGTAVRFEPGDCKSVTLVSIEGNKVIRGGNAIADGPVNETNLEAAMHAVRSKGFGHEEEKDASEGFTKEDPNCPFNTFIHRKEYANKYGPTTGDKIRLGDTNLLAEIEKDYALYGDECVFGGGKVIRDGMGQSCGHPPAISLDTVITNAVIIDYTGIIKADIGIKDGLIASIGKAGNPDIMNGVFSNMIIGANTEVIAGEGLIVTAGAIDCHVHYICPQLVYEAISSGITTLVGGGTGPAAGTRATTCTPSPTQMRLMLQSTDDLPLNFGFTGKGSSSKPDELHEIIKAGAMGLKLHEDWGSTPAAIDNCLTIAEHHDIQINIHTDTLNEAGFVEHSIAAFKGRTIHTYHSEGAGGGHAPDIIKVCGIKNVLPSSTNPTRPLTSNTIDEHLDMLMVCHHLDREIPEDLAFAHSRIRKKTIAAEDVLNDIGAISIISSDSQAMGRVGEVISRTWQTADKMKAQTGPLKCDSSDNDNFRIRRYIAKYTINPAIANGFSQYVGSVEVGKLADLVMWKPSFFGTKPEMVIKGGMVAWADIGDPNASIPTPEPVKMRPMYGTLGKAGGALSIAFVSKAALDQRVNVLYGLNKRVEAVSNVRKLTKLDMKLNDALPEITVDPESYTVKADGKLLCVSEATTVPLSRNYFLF

With `CC(C)c1ccc(CCCCCCCCCCCCCCCCCO)cc1` [compound 1, sorokiniol], in test [1], the IC50 is 9.08 µM. `NC(N)=S` [thiourea]: at Jack bean Urease, the “% Inhibition” value is on record as 95 ± 1.50 % Inhibition.
